Laboratory results from PMC12684298, “The Parkinson's Disease Drug Tolcapone and Analogues are Potent Glycomimetic Lectin Inhibitors of Pseudomonas aeruginosa LecA” (Angewandte Chemie (International Ed. in English), 2025).
“And” between values parts separate entries of the source, which are not always exact repeats. Equal entries are not always repeated. Where two headings read alike, the source gives them in different places.

What was measured:
[1] = target: T1, LecA (Pseudomonas aeruginosa, UniProt Q05097); assay: biochemical; format: binding
T1 construct: made in house; host or cells: E. coli BL21 (DE3), plasmid pET25pa11
Method: Therefore, we focused our attention on commercially available nitro‐catechols. Prominent derivatives are inhibitors of the enzyme catechol‐O‐methyltransferase (COMT) and approved drugs for the treatment of Parkinson's disease. Four commercial COMT inhibitors were thus evaluated in a previously reported competitive binding assay based on fluorescence polarisation (FP, Table 1, Figure 1).^[ [32] ^]
The competitive binding assay was performed in analogy to Joachim et al.^[2] 10 µL of a solution containing LecA (40 µM) and sulfo-Cy5-Gal (20 nM, synthesis described in Kuhaudomlarp, Siebs et al.^[5]) in TBS/Ca buffer (20 mM Tris, 147 mM NaCl, 2.6 mM KCl at pH 7.4 supplemented with 1 mM CaCl2) were distributed in into wells of a black 384-well microtiter plate (Greiner Bio-One, Germany, cat no 781900). Then, 10 µL of serial dilutions of compounds (3 mM to 1.5 µM, dilution factor 0.5) in TBS/Ca with 40% DMSO were added in technical triplicates. Final concentrations after mixing were the following: 1.5 mM – 0.73 µM compound, 20 µM LecA, 10 nM sulfo-Cy5-Gal and 20% DMSO. The plate was sealed (EASYseal, Greiner Bio-One, cat no 676001), briefly centrifuged and incubated at room temperature in the dark under shaking conditions. Fluorescence intensity was measured after 1 h and 4 h using a PheraStar FS plate reader (BMG Labtech GmbH, Germany) with spectral filters for excitation at 590 nm and emission at 675 nm and polarization was calculated after blank values of 20 µM LecA in TBS/Ca buffer with 20% DMSO were subtracted from the test compounds. The data were analysed using the four-parameter variable slope model of the MARS Data Analysis software. The top and bottom plateau were assigned based on the control compound methyl α-d-galactoside and the data was reanalysed with these fixed values. If not mentioned otherwise, the experiment was repeated at least three times for each compound and the average and standard deviation are given. In case Triton X-100 was used it was added to the TBS/Ca buffer before the assay.

[2] = target: T1, LecA; assay: Library screening using the FP competitive binding assay (three concentrations)
Source text: Next, we screened a library of catechols from F. Hoffmann‐La Roche, the developer of Tolcapone, in the competitive binding assay to establish a structure–activity relationship. To this end, two sets of compounds with a molecular cut‐off of 500 Da were chosen: a first set of 342 compounds contained derivatives of Tolcapone, while a second set of 3222 compounds comprised catechols covering a larger chemical space. […] Tests were run in a 384‐well‐plate format at three concentrations (first set at 125, 32, and 4 µM, second set at 100, 25, and 3 µM) in presence of 10% DMSO and 250 µM 2‐mercaptoethanol to prevent interference by a potential unspecific reactivity of electron‐rich catechols as established earlier.^[ [30] ^]
The screening followed the same assay by Joachim et al.^[2] as described above. Compounds in DMSO (1 µL with the appropriate concentration) were plated using a robot into black 384-well microtiter plates (Greiner Bio-One, Germany, cat no 781900) by the Roche compound handling facility at four replicates per concentration and compound. A mixture of LecA, sulfo-Cy5-Gal and 2-mercaptoethanol in TBS/Ca (20 mM Tris, 147 mM NaCl, 2.6 mM KCl at pH 7.4 supplemented with 1 mM CaCl2) with DMSO was added at HIPS. Final concentrations in both screening rounds were the following: 5 µM LecA, 250 µM 2-mercaptoethanol, 10 nM sulfo-Cy5-Gal and 10% DMSO. Final concentrations of the 342 compounds of the first screening round were 125 µM, 32 µM and 4 µM. The 3222 compounds of the second screening round were tested at final concentrations of 100 µM, 25 µM and 3 µM. The plate was sealed (EASYseal, Greiner Bio-One, cat no 676001), briefly centrifuged and incubated at room temperature in the dark under shaking conditions. Fluorescence intensities were measured after 1 h and 24 h using a PheraStar FS plate reader (BMG Labtech GmbH, Germany) with spectral filters for excitation at 590 nm and emission at 675 nm and polarization was calculated after blank values of 5 µM LecA in TBS/Ca buffer with 250 µM 2-mercaptoethanol and 10% DMSO were subtracted from the test compounds. The data were analysed using the MARS Data Analysis software. […] All stated values are the average including the standard deviation based on three replicates for 100 µM and four replicates in the case of compounds at 125 µM.

[3] = target: T1, LecA; assay: biochemical; format: binding; conditions: ITC; for Kd: read-out: KD
Method: Isothermal titration calorimetry was performed on a MicroCal PEAQ-ITC (Malvern Panalytical) at 25 °C and 750 rpm stirring. The cell was filled with LecA (75 - 111 µM) in TBS/Ca buffer (20 mM Tris, 147 mM NaCl, 2.6 mM KCl at pH 7.4 supplemented with 1 mM CaCl2) with 20% DMSO and titrated with ligand (0.75 mM or 1.5 mM, 19 injections) in the same buffer. Data were analysed using the one binding site model in the MicroCal PEAQ-ITC analysis software (Malvern Panalytical). The first injection of each titration was excluded and the baseline subtracted for the final figures. Three titration per compound were performed and the average as well as standard deviation are given.

[4] = IC50, extended dose-response analysis, 20% DMSO, no 2-mercaptoethanol, three experiments
[5] = LecA inhibition, competitive binding assay (FP), tested up to 1.5 mM, n ≥ 2
[6] = read-out: Activity [%] (% inhibition relative to 500 µM pNPGal)
[7] = IC50 in presence of 0.01% Triton X-100, FP assay, 0.01% Triton X-100, one replicate
[8] = IC50 in presence of 0.057% Triton X-100, FP assay, 0.057% Triton X-100, one replicate
[9] = individual replicate (Repl. 1-3)

T1 sequence (Q05097 whole entry): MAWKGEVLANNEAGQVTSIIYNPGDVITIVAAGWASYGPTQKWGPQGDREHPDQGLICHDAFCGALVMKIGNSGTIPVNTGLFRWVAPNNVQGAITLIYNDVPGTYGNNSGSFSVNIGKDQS

Structure (SMILES): CCCCOC(=O)c1cccc(C(=O)c2cc(O)c(O)c([N+](=O)[O-])c2)c1 [RO0626778]
- IC50 [1, 4]: 117 µM

Structure (SMILES): O=C(NC1CCCCC1)c1cccc(C(=O)c2cc(O)c(O)c([N+](=O)[O-])c2)c1 [RO0626783]
- IC50 [1, 4]: 430 µM

Structure (SMILES): O=C(NCc1ccccc1)c1cccc(C(=O)c2cc(O)c(O)c([N+](=O)[O-])c2)c1 [RO0626786]
- IC50 [1, 4]: 356 µM

Structure (SMILES): CCCN(CCC)C(=O)c1c(Br)cc(O)c(O)c1[N+](=O)[O-] [RO0627603]
- IC50 [1, 4]: 285 µM

Structure (SMILES): CC(=O)C(=Cc1cc(O)c(O)c([N+](=O)[O-])c1)C(C)=O [compound 1, Nitecapone, reference compound]
- IC50 [1, 5]: no inhibition
- IC50 ([1]; LecA inhibition, competitive binding assay (FP), tested up to 1.5 mM, n ≥ 2, listed as Nitecapone): inactive

Structure (SMILES): CCN(CC)C(=O)/C(C#N)=C/c1cc(O)c(O)c([N+](=O)[O-])c1 [compound 2, Entacapone, reference compound]
- IC50 [1, 5]: no inhibition
- IC50 ([1]; LecA inhibition, competitive binding assay (FP), tested up to 1.5 mM, n ≥ 2, listed as Entacapone): inactive

Structure (SMILES): Cc1c(Cl)c(C)[n+]([O-])c(Cl)c1-c1noc(-c2cc(O)c(O)c([N+](=O)[O-])c2)n1 [compound 3, Opicapone, reference compound]
- IC50 ([1]; IC50, LecA inhibition, competitive binding assay (FP), tested up to 1.5 mM, n ≥ 2): 842 ± 134 µM

Structure (SMILES): COc1cc(C(=O)c2ccc(C)cc2)cc([N+](=O)[O-])c1OC [compound 5]
- Activity [%] (% inhibition relative to 500 µM pNPGal) ([2]; compound 125 µM (marked *), 10% DMSO, 250 µM 2-mercaptoethanol, four replicates): complete lack of activity
- inhibition at 125 µM [2, 6]: -5.3 ± 7.6%

Structure (SMILES): Cc1ccc(C(=O)c2ccc(O)c(O)c2)cc1 [compound 6]
- inhibition at 100 µM [2, 6]: 13.8 ± 3.9%

Structure (SMILES): Cc1ccc(C(=O)c2cc(O)c(O)c(O)c2)cc1 [compound 7]
- inhibition at 100 µM [2, 6]: 7.5 ± 4.9%

Structure (SMILES): Cc1ccc(C(=O)c2cc(N)c(O)c(O)c2)cc1 [compound 8]
- inhibition at 100 µM [2, 6]: 7.9 ± 3.4%

Structure (SMILES): Cc1ccc(C(=O)c2cc(O)c(O)c(C(=O)O)c2)cc1 [compound 9]
- inhibition at 100 µM [2, 6]: 2.1 ± 2.9%

Structure (SMILES): CC(=O)Nc1cc(C(=O)c2ccc(C)cc2)cc(O)c1O [compound 10]
- inhibition at 100 µM [2, 6]: 20.1 ± 2.8%

Structure (SMILES): Cc1ccc(C(=O)c2cc(O)c(O)c(C(N)=O)c2)cc1 [compound 11]
- inhibition at 100 µM [2, 6]: 21.8 ± 3.4%

Structure (SMILES): Cc1ccc(C(=O)c2cc(O)c(O)c(C#N)c2)cc1 [compound 12]
- inhibition at 100 µM [2, 6]: 20.2 ± 4.8%

Structure (SMILES): Cc1ccc(C(=O)c2cc(O)c(O)c(-c3nc(C)no3)c2)cc1 [compound 13]
- inhibition at 100 µM [2, 6]: 57.7 ± 3.8%
- IC50 [1, 4]: 346 ± 36 µM

Structure (SMILES): Cc1ccc(C(=O)c2cc(O)c(O)c(-c3nnn[nH]3)c2)cc1 [compound 14]
- inhibition at 100 µM [2, 6]: 0.8 ± 8.7%

Structure (SMILES): Cc1noc(-c2cc(O)c(O)c([N+](=O)[O-])c2)n1 [compound 16]
- inhibition at 100 µM [2, 6]: 9.4 ± 7.5%

Structure (SMILES): Nc1cc(Cl)ccc1-c1nc(-c2cc(O)c(O)c([N+](=O)[O-])c2)cs1 [compound 17]
- inhibition at 100 µM [2, 6]: 15.2 ± 8.7%

Structure (SMILES): Cn1nc(-c2cc(O)c(O)c([N+](=O)[O-])c2)cc1O [compound 18]
- inhibition at 100 µM [2, 6]: 1.9 ± 3.3%

Structure (SMILES): CC(=O)c1cc(O)c(O)c([N+](=O)[O-])c1 [compound 19]
- inhibition at 100 µM [2, 6]: 31.5 ± 3.8%

Structure (SMILES): CCOC(=O)c1cc(O)c(O)c([N+](=O)[O-])c1 [compound 20]
- inhibition at 100 µM [2, 6]: 14 ± 4.2%

Structure (SMILES): CCCCOC(=O)c1cc(O)c(O)c([N+](=O)[O-])c1 [compound 21]
- inhibition at 100 µM [2, 6]: 22.9 ± 1.8%

Structure (SMILES): O=C(Nc1ccc(F)cc1)c1cc(O)c(O)c([N+](=O)[O-])c1 [compound 22]
- inhibition at 100 µM [2, 6]: 8.7 ± 3.3%

Structure (SMILES): O=C(NCc1ccccc1)c1cc(O)c(O)c([N+](=O)[O-])c1 [compound 23]
- inhibition at 100 µM [2, 6]: 26.6 ± 4.2%

Structure (SMILES): O=C(NC12CC3CC(CC(C3)C1)C2)c1cc(O)c(O)c([N+](=O)[O-])c1 [compound 24]
- inhibition at 100 µM [2, 6]: 10 ± 3.6%

Structure (SMILES): O=C(c1cc(O)c(O)c([N+](=O)[O-])c1)N1CCCCC1 [compound 25]
- inhibition at 100 µM [2, 6]: 5 ± 11.8%

Structure (SMILES): O=C(c1cc(O)c(O)c([N+](=O)[O-])c1)c1ncc[nH]1 [compound 26]
- inhibition at 100 µM [2, 6]: 16.8 ± 3.8%

Structure (SMILES): O=C(c1cc(O)c(O)c([N+](=O)[O-])c1)C1CCCCC1 [compound 27]
- inhibition at 100 µM [2, 6]: 23.4 ± 3.6%

Structure (SMILES): O=C(c1cc(O)c(O)c([N+](=O)[O-])c1)c1nc2ccccc2[nH]1 [compound 28]
- inhibition at 100 µM [2, 6]: 26.7 ± 3.6%

Structure (SMILES): O=C(c1ccccc1)c1cc(O)c(O)c([N+](=O)[O-])c1 [compound 29]
- inhibition at 100 µM [2, 6]: 41.8 ± 7.3%

Structure (SMILES): Cc1c(C(=O)c2cc(O)c(O)c([N+](=O)[O-])c2)[nH]c2ccc(Br)cc12 [compound 30]
- IC50 [1, 4]: 43 µM
- IC50 [1, 7]: 59 µM

Structure (SMILES): O=C(OCc1ccccc1)c1ccc(C(=O)c2cc(O)c(O)c([N+](=O)[O-])c2)cc1 [compound 31]
- IC50 [1, 4]: 47 µM
- IC50 [1, 7]: 17 µM
- IC50 [1, 8]: 16 µM

Structure (SMILES): C=CCOC(=O)c1ccc(C(=O)c2cc(O)c(O)c([N+](=O)[O-])c2)cc1 [compound 32]
- IC50 [1, 4]: 56 µM
- IC50 [1, 7]: 49 µM
- IC50 [1, 8]: 50 µM

Structure (SMILES): CCCCCOC(=O)c1cccc(C(=O)c2cc(O)c(O)c([N+](=O)[O-])c2)c1 [compound 34]
- IC50 [1, 4]: 63 µM
- IC50 [1, 7]: 88 µM
- IC50 [1, 8]: 61 µM

Structure (SMILES): CCCCCOC(=O)c1ccc(C(=O)c2cc(O)c(O)c([N+](=O)[O-])c2)cc1 [compound 35]
- IC50 [1, 4]: 72 µM
- IC50 [1, 8]: 66 µM

Structure (SMILES): O=[N+]([O-])c1ccc(O[C@@H]2O[C@H](CO)[C@H](O)[C@H](O)[C@H]2O)cc1 [pNPGal, para‐nitrophenyl β‐D‐galactoside, reference compound]
- Kd ([3]; 25 °C, 20% DMSO, average of three titrations): 10.1 µM
- N (sites) ([3]; average of three titrations): 0.81 ± 0.09 and 0.810
- ΔG ([3]; average of three titrations): -6.84 ± 0.072 kcal/mol and -6.84 kcal/mol
- -TΔS [3, 9]: 5.83 kcal/mol and 4.64 kcal/mol and 5.02 kcal/mol
- N (sites) [3, 9]: 0.722 and 0.801 and 0.908
- ΔG [3, 9]: -28.4 kJ/mol (2×) and -28.9 kJ/mol
- ΔH [3, 9]: -12.6 kcal/mol and -11.5 kcal/mol and -11.8 kcal/mol
- Kd [3, 9]: 10.8 µM (2×) and 8.8 µM
